In article PMC6585941 (SLAS discovery : advancing life sciences R & D, 2018):
Values belong to the compound of their own block, whether it stands above or below them.

Experiments:
Recombinant human IDE = target: T1, Recombinant human IDE (Homo sapiens, UniProt P14735); experiment: Fluorescence polarization; type: biochemical
T1 sequence (P14735 1-1019): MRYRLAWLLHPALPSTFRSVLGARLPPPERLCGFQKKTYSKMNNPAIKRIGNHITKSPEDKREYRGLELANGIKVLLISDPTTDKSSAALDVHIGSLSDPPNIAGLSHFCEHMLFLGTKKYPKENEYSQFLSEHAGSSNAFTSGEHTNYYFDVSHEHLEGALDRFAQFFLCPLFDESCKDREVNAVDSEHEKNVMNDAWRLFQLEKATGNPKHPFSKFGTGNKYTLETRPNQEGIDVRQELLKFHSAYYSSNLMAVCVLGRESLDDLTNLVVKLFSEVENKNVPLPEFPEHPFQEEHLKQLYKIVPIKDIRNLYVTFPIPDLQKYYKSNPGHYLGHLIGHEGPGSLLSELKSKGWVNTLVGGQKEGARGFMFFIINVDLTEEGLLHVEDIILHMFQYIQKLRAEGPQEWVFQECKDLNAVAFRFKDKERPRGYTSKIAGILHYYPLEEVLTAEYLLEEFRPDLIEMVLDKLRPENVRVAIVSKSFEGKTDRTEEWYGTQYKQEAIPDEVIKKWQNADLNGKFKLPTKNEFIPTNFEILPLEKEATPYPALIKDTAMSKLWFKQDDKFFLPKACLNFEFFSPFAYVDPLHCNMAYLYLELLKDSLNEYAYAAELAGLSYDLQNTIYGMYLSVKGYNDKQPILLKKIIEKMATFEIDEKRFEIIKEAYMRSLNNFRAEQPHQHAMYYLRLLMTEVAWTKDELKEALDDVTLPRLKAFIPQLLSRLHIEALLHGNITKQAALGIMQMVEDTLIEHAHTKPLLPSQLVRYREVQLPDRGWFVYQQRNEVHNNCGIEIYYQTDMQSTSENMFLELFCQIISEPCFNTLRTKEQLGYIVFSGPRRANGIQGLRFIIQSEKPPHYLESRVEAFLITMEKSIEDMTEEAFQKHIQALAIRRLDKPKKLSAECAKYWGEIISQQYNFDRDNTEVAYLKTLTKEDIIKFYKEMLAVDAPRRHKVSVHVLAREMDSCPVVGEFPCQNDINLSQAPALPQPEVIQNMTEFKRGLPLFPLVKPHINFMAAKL

purified recombinant IDE = settings: same form of purified recombinant IDE; cited from earlier work
[1] = test system: semi-purified protease purified from rat liver, inferred to be IDE; settings: protease purified by affinity chromatography from rat liver; cited from earlier work
[2] = ML345 50 nM, FP-based assay, mean ± SD of 3 independent runs

KM^app of FBG degradation in presence of inhibitor (Recombinant human IDE; [2]): 0.392 ± 0.073 µM
vmax^app of FBG degradation in presence of inhibitor (Recombinant human IDE; [2]): 0.827 ± 0.032 nM/s
mechanism of inhibition of IDE (Recombinant human IDE; kinetics analyses, Lineweaver-Burk plots, P12–3A 5 µM or ML345 50 nM): irreversible
Compound: O=c1c2cc(F)ccc2sn1-c1cc(S(=O)(=O)N2CCOCC2)ccc1N1CCOCC1 [ML345]

Compound: insulin
kcat of degradation by IDE (purified recombinant IDE): 0.025 s⁻¹

Compound: bacitracin
inhibition of the purified protease [1]: susceptible to inhibition
